According to PubChem BioAssay AID403 (SGCOxCompounds, 2006):

Molecular target: Receptor-type tyrosine-protein phosphatase eta (Homo sapiens) (UniProt Q12913)
Test: inhibition of receptor phosphatase PTPRJ activity – biochemical, human, DiFMUP fluorescence (AID 403)
Settings: recombinant PTPRJ, 25 C, at 50 µM, enzyme 0.05 ng/mL, DTT 5 mM, active compounds read high

Receptor-type tyrosine-protein phosphatase eta (Homo sapiens), sequence (Q12913 whole entry, looked up): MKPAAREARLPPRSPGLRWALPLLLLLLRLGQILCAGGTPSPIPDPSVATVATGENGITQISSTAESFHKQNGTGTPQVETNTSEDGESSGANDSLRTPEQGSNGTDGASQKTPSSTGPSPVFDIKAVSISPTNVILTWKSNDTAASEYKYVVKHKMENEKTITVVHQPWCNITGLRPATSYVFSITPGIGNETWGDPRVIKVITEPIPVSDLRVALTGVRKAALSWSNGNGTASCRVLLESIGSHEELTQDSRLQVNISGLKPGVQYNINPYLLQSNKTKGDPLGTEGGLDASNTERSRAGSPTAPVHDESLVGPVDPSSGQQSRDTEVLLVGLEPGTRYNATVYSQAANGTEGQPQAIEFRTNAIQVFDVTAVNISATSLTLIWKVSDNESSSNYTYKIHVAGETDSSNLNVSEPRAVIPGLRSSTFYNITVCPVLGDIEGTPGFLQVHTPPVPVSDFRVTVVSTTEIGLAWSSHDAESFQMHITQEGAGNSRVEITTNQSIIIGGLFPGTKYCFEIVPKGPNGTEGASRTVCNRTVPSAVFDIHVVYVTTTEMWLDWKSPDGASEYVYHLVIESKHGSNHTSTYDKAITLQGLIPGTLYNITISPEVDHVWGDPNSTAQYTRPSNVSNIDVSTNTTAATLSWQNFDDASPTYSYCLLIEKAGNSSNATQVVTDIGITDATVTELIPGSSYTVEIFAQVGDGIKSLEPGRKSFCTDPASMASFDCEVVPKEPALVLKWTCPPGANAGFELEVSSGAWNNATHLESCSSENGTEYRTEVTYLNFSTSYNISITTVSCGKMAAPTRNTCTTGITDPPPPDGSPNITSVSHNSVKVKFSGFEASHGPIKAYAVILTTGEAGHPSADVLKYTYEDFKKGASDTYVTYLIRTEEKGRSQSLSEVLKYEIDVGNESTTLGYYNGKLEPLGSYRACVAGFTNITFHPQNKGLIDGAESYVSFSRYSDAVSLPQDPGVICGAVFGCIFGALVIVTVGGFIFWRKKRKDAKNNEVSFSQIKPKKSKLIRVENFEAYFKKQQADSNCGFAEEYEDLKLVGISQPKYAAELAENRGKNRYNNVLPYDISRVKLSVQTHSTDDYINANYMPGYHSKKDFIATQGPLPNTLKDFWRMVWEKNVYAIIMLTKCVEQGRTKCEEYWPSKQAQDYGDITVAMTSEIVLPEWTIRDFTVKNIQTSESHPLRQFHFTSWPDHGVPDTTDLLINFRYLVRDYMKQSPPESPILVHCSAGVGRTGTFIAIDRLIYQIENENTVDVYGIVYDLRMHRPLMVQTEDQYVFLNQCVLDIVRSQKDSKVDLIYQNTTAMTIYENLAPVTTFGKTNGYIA

| SMILES | inhibition [%] |
| --- | --- |
| O=C(O)c1ccc(O)c(N2C(=O)Nc3ccccc3N2O)c1 | 82 |
| CC(C)(c1ccc(NS(=O)(=O)C(F)(F)F)cc1)c1ccc(C(C)(C)c2ccc(NS(=O)(=O)C(F)(F)F)cc2)cc1 | 66 |
| OO.OO.[K+].[O]=[V].c1ccc(-c2ccccn2)nc1 | 98 |
| O=C1NC(=S)S/C1=C\C=C\c1ccc([N+](=O)[O-])o1 | 50 |
| [NH-]CO.[NH-]CO.[NH-]CO.[NH-]CO.[O]=[V][O][V]=[O] | 100 |
| Cc1c(Cl)c(C)c([N+](=O)[O-])c(O)c1C=Nc1ccc(O)cc1C(=O)O | 95 |
| CN(N=O)c1ccc(O)c(O)c1 | 97 |
| O=C(O)c1ccc([O-])cn1.OO.OO.[K+].[K+].[O]=[V] | 99 |
| COc1ccc(-c2nc3cc(N=Cc4cc(C(=O)O)ccc4O)ccc3o2)cc1 | 67 |
| O=C(O)c1ccc(O)c(C=Nc2ccc3oc(-c4ccccc4)nc3c2)c1 | 52 |
| O=C(O)c1ccc(O)cn1.OO.[O]=[V] | 92 |
| O=C([O-])c1ccccn1.OO.OO.[K+].[K+].[O]=[V] | 100 |
| Cc1ccc(N=Cc2cc(C(=O)O)ccc2O)c(O)c1 | 55 |
